Where a SMILES comes first, the peptide text is derived from it. [ ]: non-standard residue; d: D form. The star is where a group is joined. pNA = O=[N+]([O-])c1ccc(N*)cc1
What was measured:
[1] = target: T1, Human tissue plasminogen activator (tPA) (Two chains, Sigma) (Homo sapiens, UniProt P00750); assay: In vitro chromogenic assay for tissue plasminogen activator; type: biochemical; details: substrate concentration stated equal to Km under present assay conditions; pH 7.5, ambient temperature; read-out: Km (S2288)
T1 construct: purchased Sigma
T1 sequence (P00750 311-562 limits assumed): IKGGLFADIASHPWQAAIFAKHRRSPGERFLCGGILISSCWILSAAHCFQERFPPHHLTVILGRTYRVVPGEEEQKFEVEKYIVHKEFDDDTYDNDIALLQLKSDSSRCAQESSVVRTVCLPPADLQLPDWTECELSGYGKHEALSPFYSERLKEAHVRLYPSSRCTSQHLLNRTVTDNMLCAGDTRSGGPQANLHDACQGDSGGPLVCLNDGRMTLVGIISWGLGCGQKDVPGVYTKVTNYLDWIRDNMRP
T1 sequence (P00750 36-310 partner limits assumed): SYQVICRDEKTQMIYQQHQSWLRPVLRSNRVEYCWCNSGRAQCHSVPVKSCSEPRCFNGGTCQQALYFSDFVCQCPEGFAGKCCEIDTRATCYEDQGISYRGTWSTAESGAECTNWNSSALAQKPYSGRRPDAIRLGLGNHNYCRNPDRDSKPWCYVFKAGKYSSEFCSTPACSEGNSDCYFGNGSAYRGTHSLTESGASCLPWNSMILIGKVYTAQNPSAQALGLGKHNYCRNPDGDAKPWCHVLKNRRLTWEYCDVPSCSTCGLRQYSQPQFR
Protocol: (§1) The activities were determined as an initial rate of cleavage of the peptide p-nitroanilide by the enzyme. The cleavage product, p-nitroaniline, absorbs at 405 nm with a molar extinction coefficient of 9920M^-1 cm^-1.
(§2) 50 mM TrisHCl, 150 mM NaCl, 2.5 mM CaCl2, and 0.1% polyethylene glycol 6000, pH 7.5.
3. Human tissue plasminogen activator (tPA) (Two chains, Sigma) stock solution: 1 mg/mL, stored at -80° C. (working solution (2X): 1361 ng/mL in assay buffer, prepare prior to use).
3. S2288 (tPA assay) stock solution: 10 mM in dH2 O, stored at 4° C. (working solution (4X): 1484 μM in assay buffer). (All substrate working solutions were prepared on assay day […].)
Assays were performed in 96-well microtiter plates in a total volume of 200 μl. […] Concentrations of the standard inhibitor compound in the assay were from 5 μM to 0.021 μM in 1 to 3 dilution. Concentration of the test compounds in the assay typically were from 10 μM to 0.041 μM in 1 to 3 dilution. […]
(§3) The enzyme kinetics were measured at 405 nm, at 10 seconds interval, for five minutes in a THERMOmax plate reader at ambient temperature.
(§4) Enzyme rates were calculated as mOD/min based on the first two minutes readings. The IC50 values were determined by fitting the data to the log-logit equation (linear) or the Morrison equation (non-linear) with an EXCEL spread-sheet. […]

[2] = target: T2, Human thrombin (factor IIa) (Homo sapiens, UniProt P00734); assay: In vitro chromogenic assay for thrombin; type: biochemical; details: substrate concentration stated equal to Km under present assay conditions; pH 7.5, ambient temperature; read-out: Km (S2302)
T2 construct: Human thrombin stock solution; purchased Enzyme Research Lab
Protocol: as §1, §2
2. Human thrombin stock solution: Stored at -80° C. (working solution (2X): 1200 ng/mL or 40 nM in assay buffer, prepare prior to use).
2. S2302 (Thrombin assay) stock solution: 10 mM in dH2 O, stored at 4° C. (working solution (4X): 1200 μM in assay buffer).
Assays were performed in 96-well microtiter plates in a total volume of 200 μl. […] Concentrations of the standard inhibitor compound in the assay were from 5 μM to 0.021 μM in 1 to 3 dilution. Concentration of the test compounds in the assay typically were from 10 μM to 0.041 μM in 1 to 3 dilution. For potent test compounds, the concentrations used in the factor Xa assay were further diluted 100 fold (100 nM to 0.41 nM) or 1000 fold (10 nM to 0.041 nM). […]
as §3, §4

Km [1] [µM]	Km [2] [µM]	SMILES
371		CC[C@@H](C)[C@@H](N)C(=O)N1CCC[C@H]1C(=O)N[C@@H](CCCN=C(N)N)C(=O)Nc1ccc([N+](=O)[O-])cc1 [S2288] (H-[dI]-Pro-Arg-pNA)
	300	N=C(N)NCCC[C@H](NC(=O)[C@H](Cc1ccccc1)NC(=O)[C@H]1CCCN1)C(=O)Nc1ccc([N+](=O)[O-])cc1 [S2302] (H-[dP]-Phe-Arg-pNA)
